Reference: article PMC8452301 (CPT: Pharmacometrics & Systems Pharmacology, 2021)
Read-outs that look alike come from different tables or passages of the source.

What was measured:
[1] = Physicochemical input parameters; settings: high solubility–high permeability
[2] = cited from earlier work
[3] = cited from earlier work; remark: listed apart in the source
[4] = type: in vivo, human; settings: observed
[5] = cited from earlier work; remark: listed apart in the source
[6] = 4-mg single dose, no inhibitor, Cohort A n=17, mean
[7] = 4-mg with 200-mg q.d. itraconazole, Cohort C, geometric mean
[8] = 4-mg with 200-mg q.d. itraconazole, Cohort C, mean
[9] = 4-mg with 400-mg q.d. fluconazole, Cohort B, geometric mean
[10] = 4-mg with 400-mg q.d. fluconazole, Cohort B, mean
[11] = 4-mg single dose, geometric mean, observed N=7
[12] = 4-mg single dose, mean, observed N=7
[13] = 4-mg single dose, median, observed N=7
[14] = 4-mg, q.d. dosing, geometric mean, observed N=5
[15] = 4-mg, q.d. dosing, mean, observed N=5
[16] = 9-mg q.d. dosing, geometric mean, observed N=6
[17] = 9-mg q.d. dosing, mean, observed N=6
[18] = 9-mg q.d. dosing, median, observed N=6
[19] = 9-mg single dose, geometric mean, observed N=9
[20] = 9-mg single dose, mean, observed N=9
[21] = 9-mg single dose, median, observed N=9

In the case of `COc1cc(OC)cc(N(CCNC(C)C)c2ccc3ncc(-c4cnn(C)c4)nc3c2)c1` [erdafitinib], the “Biopharmaceutics Classification System class” value [1] is given as “Class 1”, the AUCinf ([2]; 4-mg single dose, no inhibitor, Cohort A n=17, geometric mean) is given as 8777 ng·h/mL and the AUCinf [2, 6] is given as 9145 ng·h/mL. For the same compound, the Cmax [2, 6] was 138 ng/mL, the AUCinf [2, 7] was 11,785 ng·h/ml and the Cmax [2, 7] was 140 ng/mL. The AUCinf [2, 8] was 12,228 ng·h/ml, the Cmax [2, 8] was 145 ng/mL and the AUCinf [2, 9] was 13,060 ng·h/ml. For the same compound, the Cmax [2, 9] was 162 ng/mL, the AUCinf [2, 10] was 14,233 ng·h/ml and the Cmax [2, 10] was 177 ng/mL. For the same compound, the “AUC0–72” value [3, 11] was 6022 ng·h/mL, the Cmax [3, 11] was 163 ng/mL and the “AUC0–72” value [3, 12] was 6743 ng·h/mL. The Cmax [3, 12] was 182 ng/mL, the “AUC0–72” value [3, 13] was 6360 ng·h/mL and the Cmax [3, 13] was 173 ng/mL. For the same compound, the AUCtau [3, 14] was 12,064 ng·h/ml, the Cmax [3, 14] was 630 ng/mL and the AUCtau [3, 15] was 13,516 ng·h/ml. For the same compound, the Cmax [3, 15] was 675 ng/mL, the Cmax ([3]; 4-mg, q.d. dosing, median, observed N=5) was 569 ng/mL and the AUCtau [3, 16] was 36,608 ng·h/ml. For the same compound, the Cmax [3, 16] was 1911 ng/mL, the AUCtau [3, 17] was 39,587 ng·h/ml and the Cmax [3, 17] was 2018 ng/mL. The AUCtau [3, 18] was 30,594 ng·h/ml, the Cmax [3, 18] was 1765 ng/mL and the “AUC0–72” value [3, 19] was 15,091 ng·h/ml. The Cmax [3, 19] was 390 ng/mL, the “AUC0–72” value [3, 20] was 17,564 ng·h/ml and the Cmax [3, 20] was 431 ng/mL. For the same compound, the “AUC0–72” value [3, 21] was 16,053 ng·h/ml, the Cmax [3, 21] was 389 ng/mL and the “difference in total exposure, patients with cancer versus healthy subjects” value [4] was ~ 1.4 fold. The “unchanged drug recovered in feces” value ([5]; over ~ 16 days) was 17% and the “unchanged drug recovered in feces” value ([5]; within the first 3 days) was < 5 % of the dose.
